In US12428666B2, “Compositions and methods related to kethoxal derivatives” (The University of Chicago, priority 2018, dated 2025):
Entries after “also recorded” stand apart in the source; their conditions may differ.

Key:
[1] = system: RNA G-quadruplexes (rG4) in HeLa cell; assay: Keth-seq of rG4 regions with or without PDS treatment; format: cell-based, human; conditions: HeLa cell mRNA, 105 regions
Method: The characterization of RNA G-quadruplexes (rG4) in vivo remains challenging. Because of its high specificity towards guanine, the rG4 structure is a good object of N3-kethoxal to probe. It has been reported that PDS treatment can induce the formation of rG4 inside cells based on immunofluorescence imaging. Keth-seq was tested for the ability to identify rG4 structures induced by PDS inside cells. Keth-seq libraries were prepared using mRNA isolated from HeLa cell with or without PDS treatment. Previously identified rG4 structure regions (n=13,423 from in vitro probing) were analyzed in the Keth-seq data, and detected hundreds of regions with potential secondary structure (FIG. 14d). […] As the regions that form rG4 in vivo are more […], their structures were compared in terms of GINI index. […] Two examples were included where the signal in the defined rG4 regions in the PDS sample is lower than that in the control sample (FIG. 7f).

RNA of mouse ES cells = assay: Keth-seq RT stop distribution; format: cell-based
Method: A library was prepared following icSHAPE protocol with slight changes (Spitale et al., Nature 519:486-90, 2015). The detailed protocol is described below. For in vitro library preparation, RNA was isolated and refolded in RNA folding mix buffer firstly (100 mM HEPES, pH 8.0, 100 mM NaCl, 10 mM MgCl2). The refolded RNA was treated with N3-kethoxal and then utilized for library construction. For in vivo study, N3-kethoxal was added into the cultural medium of mES cell and the RNA was isolated to be utilized for library construction.
Sequencing data processing. As the library structure is similar to icSHAPE technique, a similar strategy was used to preprocess the sequencing reads. Pipeline from icSHAPE protocol was used to conduct the data analysis, all the scripts can be accessed at URL github.com/qczhang/icSHAPE. Firstly, script readCollapse.pl was used to collapse the reads with default parameter. […] Enriched reactivity for each transcript was calculated by comparing kethoxal sample (foreground) versus control sample (background) using script calcEnrich.pl (-w factor5:scaling1 -x 0.25). […]

N3-kethoxal labelled RNA [2] = assay: Fixation of N3-kethoxal modification in RNA by borate buffer; format: physicochemical; conditions: final concentration 50 mM
Method: Fixation of N3-kethoxal modification in RNA. The labile N3-kethoxal modification in RNA can be fixed in the presence of borate buffer. The solution of N3-kethoxal labelled RNA was mixed with 1/10 volume of stock borate buffer (final concentration: 50 mM; stock borate buffer: 500 mM potassium borate, pH 7.0, pH was monitored while adding potassium hydroxide pellets to 500 mM boric acid). The borate buffer fixation was used in various steps of keth-seq protocol, see below.

guanine = assay: Reaction of N3-kethoxal with RNA nucleic bases and RNA oligos (HPLC, MALDI-TOF); format: biochemical
Method: The reaction of N3-kethoxal and RNA was generally performed with the following protocol: 100 pmol RNA oligo and 1 μmol N3-kethoxal was incubated in total 10 μL solution in PBS buffer at 37° C. for 10 mins. […] The purified labelled RNA can be used for further studies such as mass spectrometry, gel electrophoresis and copper-free click reaction with biotin-DBCO.
MALDI-TOF-MS analysis of N3-kethoxal labelled RNA oligo. […] Meanwhile the buffer exchange occurred from PBS buffer to tris buffer that can be directly used in MALDI-TOF-MS experiment without extra desalt step. One microliter of product solution was mixed with one microliter matrix which include 8:1 volume ratio of 2′4′6′-trihydroxyacetophenone (THAP, 10 mg/mL in 50% CH3CN/H2O):ammonium citrate (50 mg/mL in H2O). Then the mixture was spotted on the MALDI sample plate, dried and analyzed by Bruker Ultraflextreme MALDI-TOF-TOF Mass Spectrometers.
The product of N3-kethoxal with for RNA nucleic bases was analyzed using LC-6AD (Shimadzu, Japan) HPLC instrument, which equipped with an Inertsil ODS-SP column ([…], 250×4.6 mm) (GL Science Inc. Japan). The phase A (100 mM TEAA buffer, pH=7.0) and phase B (CH3CN) were used as eluents with a flow rate of 1 mL/min at 35° C. (B conc.: 5-5-30%/0-5-30 min).

[3] = system: living mouse embryonic stem cells (mESCs); assay: In vivo labeling of living mES cells, dot blot of isolated biotinylated RNA; format: cell-based
Method: In vivo study: 10 μL N3-kethoxal was added into the cell culture medium in 100 mm cell culture dish with nearly 80% confluent mES cells. After incubation at 37° C. in CO2 incubator for a specific time, the medium was aspirated and the cells were washed three times by PBS. The total RNA was isolated by Trizol™ reagent (Invitrogen, 15596026) or Qiagen RNeasy™ plus mini kit (Qiagen, 74134). mRNA was isolated by Dynabeads™ mRNA DIRECT™ Purification Kit (Invitrogen, 61011). The biotinylation step was same as in vitro study. The biotinylated RNA was purified by RNA clean & concentrator.
Dot blot assay: one microliter RNA (100 ng/uL) sample was spotted onto the Amersham Hybond-N+ membrane (RPN119B, GE Healthcare) and UV crosslinked to the membrane by UVP HL-2000 hybriLinker. The membrane was washed using 1×PBST (0.1% tween-20) and blocked with 5% nonfat dry milk in 1×PBST overnight at 4° C. After four times wash using 1×PBST with ten-minute interval, the streptavidin-horseradish peroxidase (1:15000 dilution, streptavidin-HRP, Life Technologies, S-911) in 1×PBST with 3% BSA was added and incubated at room temperature for 40 mins. Then then membrane was washed using 1×PBST with ten-minute interval again and developed by SuperSignal™ West Pico PLUS Chemiluminescent Substrate (Thermo Scientific, 34577). The membrane was washed by 1×PBST again and stained by methylene blue solution (0.02% methylene blue in 0.3 M sodium Acetate pH 5.2).

[4] = system: single-strand RNA (ssRNA); assay: Selectivity of N3-kethoxal to ssRNA by denaturing gel electrophoresis; format: biochemical
Text: The complementary RNA oligoes FS1 (5'-[…] NO:1, Fluorescent RNA oligo) and […]

N3-kethoxal labelled RNA [5] = assay: Reversibility of N3-kethoxal labelled RNA with excess GTP (MALDI-TOF, dot blot); format: physicochemical; conditions: for time for almost complete removal of N3-kethoxal modification on labeled RNA: excessive GTP (50 mM)
Method: Removal N3-kethoxal modification from N3-kethoxal labelled RNA. The detailed protocol of N3-kethoxal modification erasing is described below “N3-kethoxal-remove sample preparation” in the keth-seq protocol. Generally, the purified N3-kethoxal modified RNA was incubated with high concentration of GTP (½ volume of the reaction solution, final concentration 50 mM) at 37° C. for 6 hours or at 95° C. for 10 mins. Higher temperature benefits the removal the N3-kethoxal modification.

[6] = 50 mM GTP, neutral buffer, 37° C., MALDI-TOF

stability of N3-kethoxal labeled RNA in borate buffer (N3-kethoxal labelled RNA [2]) | N3-kethoxal modification in mRNA after 10 mins incubation (N3-kethoxal labelled RNA [5]; 50 mM GTP, 95° C., dot blot) | kethoxal modification after 2 h incubation (N3-kethoxal labelled RNA [5]; [6]) | kethoxal modification after 6 h incubation (N3-kethoxal labelled RNA [5]; [6]) | time for almost complete removal of N3-kethoxal modification on labeled RNA (N3-kethoxal labelled RNA [5]; 37° C.) [h] | time for almost complete removal of N3-kethoxal modification on labeled RNA (N3-kethoxal labelled RNA [5]; 95° C.) [h] | SMILES | GINI index of known rG4 regions vs control sample [1] | guanine share of RT-stopped sites among all reads (RNA of mouse ES cells; N3-kethoxal sample) [%] | G-stop sites with treatment time (keth-seq) (RNA of mouse ES cells; mES cell, 1 min vs 5 mins treatment) | labelling of RNA oligo (MALDI-TOF molecular weight of product) (guanine; 12 mer RNA oligo with 4 guanines) | reaction with four RNA nucleic bases (HPLC) (guanine; G, A, C, U) | labeling activity compared with SHAPE reagent NAI (guanine; RNA oligo) | cell permeability ([3]; added directly to culture medium of living cells) | time to label DNA and RNA in living cells ([3]; living cells) [min] | dot blot signal saturation with incubation time ([3]; mESCs, 1, 5, 10, 15, 20 mins) | gel shift on double-stranded RNA after incubation ([4]; double-stranded RNA) | gel shift on single-stranded RNA after incubation ([4]; single-stranded RNA)
– | – | – | – | – | – | NCCOc1cc(C(=O)Nc2cc(OCCN)c3ccccc3n2)nc(C(=O)Nc2cc(OCCN)c3ccccc3n2)c1 [PDS] | higher GINI index than the control sample | – | – | – | – | – | – | – | – | – | –
stabilized in borate buffer | removed thoroughly | largely removed | almost removed | ≤ 6 | ≤ 0.167 | CC(OCCN=[N+]=[N-])C(=O)C(O)O (centres unmarked) [N3-kethoxal, 3-(2-azidoethoxy)-1,1-dihydroxybutan-2-one] | – | > 80 | G-stop sites were increased from 1 min to 5 mins | all guanines (4 guanines) were modified | can only react with guanine (G) and was inert with A, C, and U | higher labeling activity | highly cell-permeable; also recorded: could permeate the living cell efficiently even during one-minute incubation; also recorded: excellent cell permeability | ≤ 5 | saturated within five minutes | no such shift was detected | a shift was observed
